One block for each molecule: values may come before it.
What was measured:
[1] = biological target: LeuT^K (Lys 288 Ala LeuT) (Aquifex aeolicus, UniProt O67854, K288A)
wild-type LeuT [2] = biological target: T1, wild-type LeuT (Aquifex aeolicus, UniProt O67854); assay: Equilibrium dialysis, [3H]Leu binding to wild-type LeuT; conditions: single-site fit, 23 °C, 6 h, listed as [^3H]Leu
LeuT Leu 400 Ala mutant = LeuT Leu 400 Ala mutant (Aquifex aeolicus, UniProt O67854, L400A); assay: Scintillation proximity assay, [3H]Leu binding to Leu 400 Ala mutant; conditions: SPA, 400 nM protein, Fig 2b; listed as [^3H]Leu
Tyr 108 Phe–LeuT^K [3] = biological target: T2, Tyr 108 Phe–LeuT^K (Aquifex aeolicus, UniProt O67854, K288A/Y108F); assay: Isothermal titration calorimetry, Leu binding to Tyr 108 Phe mutant; conditions: ITC, 25 °C, pH 7.0
wild-type LeuT [4] = biological target: T1, wild-type LeuT; assay: Scintillation proximity assay, [3H]Leu binding to wild-type LeuT; conditions: SPA
LeuT Leu 400 Cys mutant = LeuT Leu 400 Cys mutant (Aquifex aeolicus, UniProt O67854, L400C); assay: Scintillation proximity assay, [3H]Leu binding to Leu 400 Cys mutant; conditions: SPA, 400 nM protein, Fig 2b; listed as [^3H]Leu
Tyr 108 Phe–LeuT^K [5] = biological target: T2, Tyr 108 Phe–LeuT^K; assay: Equilibrium dialysis, [3H]Leu binding to Tyr 108 Phe mutant; conditions: single-site fit, 23 °C, 6 h, listed as [^3H]Leu
wild-type LeuT [6] = biological target: T1, wild-type LeuT; assay: Isothermal titration calorimetry, Leu binding to wild-type LeuT; conditions: ITC, 25 °C, pH 7.0
LeuT = conditions: cited from earlier work
[7] = two-site, ordered-binding model fit, parameters not well fitted

SMILES: C[C@H](N)C(=O)O [Ala, alanine]
Km ([1]; read-out: Km (Michaelis constant), pH 5, 200 mM inward Na+ gradient, 27 °C, no valinomycin): 790 ± 60 nM
Hill slope nH ([1]; steady-state data fitted to the Hill equation): 0.96±0.03
Vmax ([1]; two-site, ordered-binding model fit): 10,965±308 pmol min^−1 mg^−1
apparent dissociation constant KS [1, 7]: 6.8 ± 22 nM
dissociation coefficient α [1, 7]: 114±360

Stoichiometry (wild-type LeuT [2]): 0.73±0.03 mol/mol LeuT
Stoichiometry (LeuT Leu 400 Ala mutant): about 0.8 mol/mol LeuT
ΔH of binding (Tyr 108 Phe–LeuT^K [3]): -1.92 ± 0.03 kcal/mol
Stoichiometry N (Tyr 108 Phe–LeuT^K [3]; single-site model): 0.79±0.01 mol/mol LeuT
Stoichiometry (wild-type LeuT [4]; 400 nM LeuT (~20 Kd), 25–1,200 nM [3H]Leu, Fig 2b): about 0.8 mol/mol LeuT
Stoichiometry (LeuT Leu 400 Cys mutant): about 0.8 mol/mol LeuT
Stoichiometry (Tyr 108 Phe–LeuT^K [5]): 0.72±0.02 mol/mol LeuT
ΔH of binding (wild-type LeuT [6]): -3.93 ± 0.02 kcal/mol
−TΔS of binding (wild-type LeuT [6]): -6.01 ± 0.13 kcal/mol
Stoichiometry N (substrate-to-LeuT) (wild-type LeuT [6]; single-site model): 0.70±0.01 mol/mol LeuT
SMILES: CC(C)C[C@H](N)C(=O)O [Leu, L-leucine]

Effect of clomipramine on binding of Leu to wild-type LeuT (wild-type LeuT [4]; 10 nM LeuT, 1 mM clomipramine): no change
SMILES: CN(C)CCCN1c2ccccc2CCc2ccc(Cl)cc21 [clomipramine]
Mode of inhibition of LeuT transport (LeuT): non-competitive inhibitor
